The values that follow come from patent publication US20240325363A1, “COMPOSITION FOR TREATMENT OF ANTICANCER AGENT-RESISTANT CANCER” (ONCOCROSS CO.,LTD., priority 2021, published 2024).

Assay [1] has as its system HCT116 cells. Put plainly: Cell cycle analysis by PI staining and flow cytometry. The class given is cell-based, human. The following applies: 24 hours, PI staining flow cytometry. On the procedure: (§1) To determine whether the inhibition of KRAS by GW8510 was regulated through Cdk2 inhibition, HCT116 cells were treated with other CDK inhibitors, such as PKC inhibitor H7, Cdk2 inhibitor CVT-313, and Cdk4/6 inhibitor PD0332991, other than GW8510 (Cdk2 inhibitor) for 24 hours, respectively, and then to analyze the cell cycle, the cells were subjected to PI staining and confirmed by flow cytometry, and the KRAS expression levels were confirmed by Endpoint PCR and qRT-PCR.

The subject of assay [2] is KRAS. The experiment in a line: KRAS mRNA expression by Endpoint PCR / qRT-PCR in cancer cell lines. Format: cell-based, human. The following applies: for KRAS expression: HCT116 cells, comparison with other CDK inhibitors. The protocol: (§2) In order to confirm the effect of inhibiting KRAS expression by GW8510, a human colon cancer cell line HCT116 with a KRAS G13D mutation, a human prostate cancer cell line PC-3 with a KRAS G13D mutation, a human breast cancer cell line MCF7 as a KRAS wild-type cell line, a human pancreatic cancer cell line MIA PaCa-2 with a KRAS G12C mutation, and a human pancreatic cancer cell line PANC-1 with a KRAS G12D mutation were dispensed in a 6-well plate, and treated with GW8510 at 0, 1, 5 or 10 μM of concentration for 3, 6, 24 or 48 hours. Thereafter, RNA was extracted from the cells using a TRIzol™ Reagent (Thermo Fisher Scientific Inc., USA) and then cDNA was synthesized using M-MLV reverse-transcriptase (ELPIS Biotech, Korea), 2.5 mM dNTP (TransGen Biotech, China), and oligo dT15 (bioneer, Korea). Endpoint PCR was performed using an Endpoint PCR solution mixed with the synthesized cDNA, Taq polymerase master mix, and primers shown in Table 1 below, and a QuantStudio 3 Real-Time PCR Instrument (Thermo Fisher Scientific Inc., USA). Thereafter, the mRNA level of KRAS was confirmed by loading the Endpoint PCR solution on an agarose gel. In addition, the mRNA levels of nuclear transcription factor Y (NYFA) and X-linked inhibitor of apoptosis protein (XIAP) as a protein of inhibiting apoptosis, were also confirmed together with KRAS.
(§3) A colon cancer cell line HCT116 (KRAS G13D mut), pancreatic cancer cell lines PANC-1 (KRAS G12D mut) and MIA PaCa-2 (KRAS G12C mut), and a breast cancer cell line MCF7 (KRAS wt) were dispensed in a 6-well plate, and treated with GW8510 at 0, 1, 5 or 10 μM of concentration for 24 hours, and then Endpoint PCR was performed. In addition, a qRT-PCR solution was prepared by mixing SYBR Green Master Mix, the cDNA of Example 2-1, and the primers in Table 1, and qRT-PCR was performed with QuantStudio 3 Real-Time PCR Instrument (Thermo Fisher Scientific Inc., USA) to quantify the gene expression levels. In addition, the phenotypes of the cancer cell line were observed by treatment of GW8510 by using the colon cancer cell line HCT116 treated with GW8510 at 0 or 10 μM of concentration for 24 hours, and the protein expression levels of pan ras, K-ras, and β-actin were measured by immunoblot. Specifically, the colon cancer cell line HCT116 treated with GW8510 at 0 or 10 μM of concentration for 24 hours was lysed with an RIPA buffer (Curebio, Korea), and then the cell lysate was centrifuged and the supernatant was taken. The cell lysate supernatant was added with a 5×SDS sample buffer and then boiled for 10 minutes, and electrophoresis was performed using a 12% SDS polyacrylamide gel. After electrophoresis, a protein was transferred to a PVDF membrane and then blocked with 5% skim milk (TBS-T) at room temperature for 1 hour. Thereafter, primary antibodies (anti-pan ras, anti-K-ras, and anti-β-actin) diluted in a blocking solution at 1:1000 were added and incubated at 4° C. overnight, and then a membrane was washed three times with 0.05% TBS-T, and a secondary antibody (horseradish peroxidase-conjugated 2nd Ab) diluted at 1:10000 was added and incubated for 1 hour at room temperature. The membrane was washed three times with 0.05% TBS-T, developed with an enhanced chemiluminescence (ECL) solution, and exposed to an X-ray film.
as §1
A general note: In qPCR the cycle at which signal appears reflects the starting amount.

In assay [3] the test system is NFYA. The experiment in a line: NFYA mRNA expression by Endpoint PCR in cancer cell lines. The class given is cell-based, human. The protocol:
as §2

The subject of assay [4] is KRAS. The experiment in a line: KRAS protein expression by immunoblot. The class given is cell-based, human. The following applies: HCT116, GW8510 0 or 10 μM, 24 hours. On the procedure: as §3, with “After electrophoresis, a protein was transferred to a PVDF membrane and then blocked with 5% skim milk (TBS-T) at room temperature for 1 hour. Thereafter, primary antibodies (anti-pan ras, anti-K-ras, and anti-β-actin) diluted in a blocking solution at 1:1000 were added and incubated at 4° C. overnight, and then a membrane was washed three times with 0.05% TBS-T, and a secondary antibody (horseradish peroxidase-conjugated 2nd Ab) diluted at 1:10000 was added and incubated for 1 hour at room temperature. The membrane was washed three times with 0.05% TBS-T, developed with an enhanced chemiluminescence (ECL) solution, and exposed to an X-ray film.” left out
On the technique in general: In western blotting, separated proteins are transferred to a membrane and probed.

The test system of assay [5] is XIAP. The experiment in a line: XIAP mRNA expression by Endpoint PCR in cancer cell lines. Format: cell-based, human. On the procedure:
as §2

The test system of assay [6] is HCT116 cells xenograft. Put plainly: HCT116 xenograft model in nude mice, tumor size. The class given is in vivo, Balb/c nude mice. The following applies: GW8510 10 mg/kg i.p. three times a week, cetuximab 1 mg/mouse i.p. once a week. The protocol:
Experimental animals used were 36 6-week-old Balb/c nude mice. The experimental diet and drinking water were taken freely, and all experimental diets were stored in a refrigerator during a breeding period. The mice were pre-bred with regular feed to be adapted to a breeding environment for 7 days before the start of the experiment and then divided into a total of 4 groups. […] In all mice, HCT116 cells were injected with 1×10^6 S.C. at 7 weeks of age to prepare a xenograft model. […] The tumor size was measured using Equation of (long axis×short axis×short axis)/2 and measured three times a week at the same time.

The mark [7] stands for this setting: 24 hours, Endpoint PCR and qRT-PCR.
Where [8] appears, read: all of the cell lines (HCT116, PC-3, MCF7, MIA PaCa-2, PANC-1).

Consider `COc1ccc(CNc2nc(N(CCO)CCO)nc3c2ncn3C(C)C)cc1` [CVT-313, reference compound], for which, in assay [1], the cell cycle result is on record as “arrested in the GO/G1 phase”. The KRAS expression entry in assay [2] (setting [7]) is given as “no change in KRAS expression”.
On the same counts, the results for `CC1CNCCN1S(=O)(=O)c1cccc2cnccc12` (stereo not shown) [H7, reference compound] are “arrested in the GO/G1 phase” and “no change in KRAS expression”.
Consider `O=C1Nc2ccc3ncsc3c2/C1=C/Nc1ccc(S(=O)(=O)Nc2ccccn2)cc1` [GW8510], for which the “mRNA expression level of NFYA” value in assay [3] (HCT116 cells (KRAS G13D)) is recorded as “also decreased”. Besides, the “mRNA level of NFYA” value in assay [3] (setting [8]) is recorded as “also decreased”. In addition, in assay [4], the KRAS protein level entry is recorded as “also decreased”. Moreover, the “mRNA expression level of XIAP” value in assay [5] (HCT116 cells (KRAS G13D)) is “also decreased”. The “mRNA level of XIAP” value in assay [5] (setting [8]) was “also decreased”. In addition, in assay [2] (HCT116, PANC-1, MIA PaCa-2 and MCF7, GW8510 0, 1, 5 or 10 μM, 24 hours, Endpoint PCR and qRT-PCR), the KRAS transcription level entry is “significantly reduced”. Moreover, in assay [2] (setting [7]), the KRAS expression result is “inhibited the KRAS expression”. The “mRNA expression level of KRAS” value in assay [2] (HCT116 colon cancer cells (KRAS G13D), GW8510 0, 1, 5 or 10 μM, 3, 6, 24 or 48 hours, effect from 6 hours, Endpoint PCR) is “decreased in a concentration-dependent manner”. Moreover, the “KRAS mRNA level” value in assay [2] (MCF7 breast cancer cells (KRAS wild-type), Endpoint PCR) is reported as “also reduced”; in assay [2] (MIA PaCa-2 pancreatic cancer cells (KRAS G12C), Endpoint PCR) it was “decreased”; in assay [2] (PANC-1 pancreatic cancer cells (KRAS G12D), Endpoint PCR), “decreased”; in assay [2] (PC-3 prostate cancer cells (KRAS G13D), Endpoint PCR), “decreased”. In addition, in assay [6], the tumor size entry is given as “tended to decrease compared to the control group”.
On to `CC(=O)c1c(C)c2cnc(Nc3ccc(N4CCNCC4)cn3)nc2n(C2CCCC2)c1=O` [PD0332991, reference compound], for which the cell cycle entry in assay [1] is “arrested in the GO/G1 phase”. The KRAS expression result in assay [2] (setting [7]) is given as “no change in KRAS expression”.
